Data published in patent US20250152616A1, “COMPOSITIONS FOR AND METHODS OF TREATING, PREVENTING, AND/OR MITIGATING PAIN” (Duke University, priority 2022, published 2025).

Columns and labels:
[1] = Measurement of adenosine in plasma of fractured mice; format: in vivo, mouse; details: 3 days after implantation of adenosine-loaded biomaterial following tibial fracture
Description: Peripheral blood was collected and immediately incubated in ice cold stop solution at a 1:2 ratio (blood to stop solution) to inhibit degradation of adenosine (Feldman M D, et al. (1992) Clin Chem. 38:256-262). Stop solution comprised of 0.2 mM dipyridamole (Tocris, Minneapolis, MN), 5 μM erythro-9 (2-hydroxy-3-nonyl)-adenine (EHNA; Tocris), 62 μM Adenosine 5′-(α,β-methylene) diphosphate sodium salt (APCP), 5 mM EDTA, and 25 IU/mL heparin (Tocris) in PBS. The blood was centrifuged at 2000 rcf for 10 min at 4° C. to separate cells from plasma. Adenosine assay kit (Cell Biolabs, San Diego, CA, Cat #MET-5090) was used to measure adenosine levels from plasma according to manufacturer's protocol. Briefly, a reaction mixture comprised of fluorometric Probe, HRP, adenosine deaminase, purine nucleoside phosphorylase, xanthine oxidase, assay buffer and a control mix comprised of fluorometric Probe, HRP, purine nucleoside phosphorylase, xanthine oxidase, assay buffer were made and mixed with 50 μL of plasma for 15 min. at room temp. The relative fluorescence unit (RFU) was measured using a microplate reader with excitation at 570 nm and emission at 590 nm. Adenosine concentration was determined using a standard curve of known concentrations and subtracted for the background by using the values in control mix.

fractured tibiae = assay: MicroCT of fractured tibiae (fracture healing); format: in vivo, mouse; details: 21 days post-fracture
Description: In all experiments, 12-week-old to 16-week-old C57BL/6J male mice (Jackson Laboratory, Bar Harbor, ME) and Lepr-cre; tdTomato reporter mice were used. The average mouse weight was 25 grams and mice were housed in groups of four to five, and kept on a 12-hr light-dark cycle with lights off at 1800 hr. All animals had ad libitum access to chow (PMI LabDiet 5001) and water. Fracture surgeries were performed as previously described (Zeng Y, et al. (2020) Adv Mater. 32:e1906022). Animals were anesthetized by isoflurane and injected with 1 mg/kg buprenorphine SR-LAB (ZooPharm, Laramie, WY). Each mouse was then placed in a supine position with the right tibia disinfected. After skin incision and reflection, proximal to the right knee, a 0.7-mm pin was inserted from the tibial plateau through the medullary cavity to stabilize the tibia, and a cut was made at the tibial midshaft to induce a transverse fracture. Bupivacaine (0.5%; Hospira, Lake Forest, IL) at ˜1 mg/kg body weight was applied at the surgical site following wound closure using 2 reflex clips (5 mm). For animals treated with control and adenosine-loaded macroporous hydrogels, macroporous hydrogels measuring approximately 5 mm (length)×3 mm (width)×1 mm (thick) containing either 1.05±0.1 mg adenosine (ADO) or no adenosine (CTL) were implanted adjacent to the fractures immediately. […] The animals were treated with the macroporous hydrogels with or without adenosine immediately following the fracture. In the cohorts for weight bearing and open field activity measurements, 1 animal from the control group and 1 animal from the treatment group were euthanized due to shift of the inserted pin following fracture.
Tibiae were collected, fixed in 4% PFA at 4° C. for 1 day, and rinsed with PBS. The fixed samples were placed in 50-mL centrifuge tubes with styrofoam spacers and loaded into a microcomputed tomography (microCT) scanner (vivaCT 80, Scanco Medical, Wayne, PA). The samples were scanned at 55 keV at a pixel resolution of 10.4 μm. The reconstruction of the images was performed using microCT Evaluation Program V6.6 (Scanco Medical), followed by generation of radiographs and 3D models using microCT Ray V4.0 (Scanco Medical). Total volume (TV), bone volume (BV) per total volume (TV) (% BV/TV), and bone mineral density (BMD) was quantified using the phantom as a reference based on 100 contiguous slices.

Nc1ncnc2c1ncn2[C@@H]1O[C@H](CO)[C@@H](O)[C@H]1O [adenosine]
adenosine level in peripheral blood vs control biomaterials [1]: No significant increase
callus size (microCT) (fractured tibiae): smaller calluses
cortical bone bridging (microCT) (fractured tibiae): improved bridging of cortical bone with less trabecular bone
total volume (TV) of regenerating calluses vs control (fractured tibiae): lower
fracture healing (microCT images and radiographs) (fractured tibiae; local delivery): accelerated
